According to patent US20060241130A1, “Anti-inflammatory compositions and uses thereof” (priority 2003, published 2006):

What was measured:
[1] = tested on: ovalbumin sensitized Brown Norway rats; assay: Asthma treatment model II: Penh (barometric plethysmography) after repeated OVA challenge; type: in vivo, rat; conditions: 125 ppm in breathing atmosphere day 14 to day 21, measured day 21, 5 minutes after allergen challenge, mean ± standard error
Description: (§1) Asthma treatment model II: Asthma was induced on day 0 in three experimental groups of 10 animals each, by sensitization with ovalbumin (OVA) and aluminum hydroxide, as previously described (Du et al., 1992. Am. Rev. Resp. Dis. 146:1037-1041). Sensitization to the model antigen ovalbumin (OVA) was carried out by subcutaneous injection of 1 mg OVA (Sigma, St. Louis, Mo.) and 200 mg of aluminum hydroxide (AlumInject; Pierce Chemical, Rockford, Ill.) in 0.9 percent (w/w) saline in a total volume of 1 ml, and intraperitoneal injection of 1 ml saline containing 6 billion heat killed Bordetella pertussis cells (Pasteur Marieux, France). A fourth group of 10 animals was not sensitized and was used as the naive control group. The three groups of sensitized rats as well as the group of naive animals were challenged every other day from day 14 until day 21 with repeated 10 minute long inhalations of OVA using an ultrasonic nebulizer inhaler (LS 230 Systam Villeneuve Sur Lot, France). Throughout the experiments, the rats were kept unrestrained in a 20 liters box.

[2] = tested on: ovalbumin sensitized Brown Norway rats; assay: Asthma treatment model II: blinded histopathological scoring of lung sections (H&E); type: in vivo, rat
Description: as §1
In model II, all rats were anaesthetized on day 21 with pentothal and sacrificed by bleeding from the abdominal aorta. Lungs were removed and inflated with 4 percent buffered formaldehyde overlayed with 20 cm water. The lungs were sliced longitudinally and embedded in paraffin. Histologic sections 5 microns thick were cut and stained with hematoxylin and eosin. The morphological changes were evaluated by light microscopy by a pathologist who was blinded to the treatment groups. The intensity of the peribronchiolar and perivascular cellular infiltration was assessed semi-quantitatively on a 0-3 scale as follows: 0=no or practically no inflammatory cells; I=a narrow rim of inflammatory cells surrounding most of the bronchioles/blood vessels, best visualized under high power; 2=a rim of inflammatory cells 3-4 cells thick, surrounding most of the bronchioles/blood vessels; 3=a prominent rim of inflammatory cells, 5 or more cells thick, surrounding most of the bronchioles/blood vessels. Bronchiolar constriction was also assessed on a semi-quantitative scale ranging over 0-3 grades (0=none; 1=mild; 2=moderate; 3=marked). The histologic sections included bronchioles (defined as airways lined by mucosa and lacking cartilage) and distal airways (alveolar ducts and sacs). The features examined included peribronchiolar and perivascular inflammation, morphological evidence of bronchoconstriction (papillary infolding of the bronchiolar mucosa) and granulomatous response in the pulmonary parenchyma.

asthmatic human patients = assay: Double-blind cross-over study in asthmatic children, adenosine bronchial provocation test; type: in vivo; conditions: about 80 ppm nightly for two weeks
Description: Patients: Eleven patients were recruited from children to the pediatric pulmonary clinic, Rambam Medical Center, Haifa. Inclusion criteria: age: 6-11 years; diagnosis of asthma by ATS criteria; ability to perform spirometry consistently; asthma severity classified as “mild persistent” as per the GINA workshop report; no anti-inflammatory medication, including antihistamines, taken for at least 2 weeks prior to enrollment. Exclusion criteria: presence of other chronic conditions; emergency room visit in the past 3 months; respiratory infection in the past month; steroids or other anti-inflammatory medication taken within 2 weeks prior to treatment; and bronchodilators, theophylline preparations or monteleukast taken in the 24 hours prior to spirometry.
Study design: A double-blind cross-over study format was used to evaluate the effect of monoterpenes on asthma. The study included four phases, each lasting two weeks. Following enrollment, baseline spirometry was performed and inclusion/exclusion was verified. The patients then filled in a diary card for two weeks. […]
Adenosine bronchial provocation test (BPT): Bronchial provocation tests were performed by inhalation of nebulized adenosine 5′-monophosphate (adenosine; Sigma chemical company, St. Louis, Mo., USA) solutions in doubling doses. […] The best of three efforts were recorded. […]

[3] = Control: effect of sodium hypochlorite on cromolyn sodium mesophases; type: physicochemical; conditions: any concentration of cromolyn sodium, 8 hours at room temperature
Description: (§2) Analysis of the effect of ozone on cromolyn sodium mesophases: Six solutions of cromolyn sodium in PBS (7-12 percent) were placed in narrow (5 mm) NMR tubes and ozone (10 percent in oxygen) was bubbled for 5 minutes through the solutions using a flexible Teflon tube. […] Control experiments were carried out with hydrogen peroxide (30 percent) and sodium hypochlorite.

[4] = Effect of ozone on cromolyn sodium mesophases; type: physicochemical; conditions: 7-12 percent in PBS, ozone (10 percent in oxygen) bubbled for 5 minutes
Description: as §2

[5] = Cromolyn sodium lyotropic mesophase formation (polarizing microscope); type: physicochemical; conditions: phosphate buffered saline pH 7.4, 5 to 12 percent (w/w) tested
Description: Preparation of cromolyn sodium lyotropic mesophases: Solutions of cromolyn sodium (white powder, Vitamed Inc., Israel) were dissolved in phosphate buffered saline [50 mM phosphate, 100 mM NaCl (pH 7.4)] at eight different concentrations between 5 and 12 percent (w/w).

[6] = Control: effect of hydrogen peroxide on cromolyn sodium mesophases; type: physicochemical; conditions: hydrogen peroxide (30 percent), 8 hours at room temperature
Description: as §2

[7] = 0-3 scale, 125 ppm inhalation day 14-21, OVA sensitized, OVA challenged rats
[8] = H&E, representative treated rat

In the case of `CC12CCC(CC1)C(C)(C)O2` [eucalyptol], the Penh values [1] was 2.25±0.12, the “morphological evidence of bronchoconstriction score” value ([2]; 0-3 grades, 125 ppm inhalation day 14-21, OVA sensitized, OVA challenged rats) was 2.3±0.21 and the “peribronchial inflammatory cell infiltration score” value [2, 7] was 2.2±0.29. For the same compound, the “perivascular inflammatory cell infiltration score” value [2, 7] was 2.5±0.27, the “granulomas (granulomatous response) score” value ([2]; 125 ppm inhalation day 14-21, OVA sensitized, OVA challenged rats) was 1.8±0.42 and the “morphologic bronchoconstriction in representative lung section (FIG. 12)” value [2, 8] was “shows morphologic evidence of bronchoconstriction”. The “peribronchiolar inflammation in representative lung section (FIG. 12)” value [2, 8] was “peribronchiolar inflammation and a lymphoid follicle”.
For `C=C(C)[C@H]1CC=C(C)CC1` [limonene, d-limonene], the “improvement in severely asthmatic patients as compared to moderately asthmatic patients” value (asthmatic human patients; adenosine challenge) was “approximately one order of magnitude improvement” and the “asthmatics with asthmatic stress significantly and specifically relieved (adenosine challenge)” value (asthmatic human patients; children 6-11 years, compared to cineole negative control) was 6/11.
For `O=C(O)c1cc(=O)c2c(OCC(O)COc3cccc4oc(C(=O)O)cc(=O)c34)cccc2o1` [cromolyn sodium], the birefringence after hypochlorite [3] was “No effect”, the birefringence after ozone [4] was “Loss of birefringence in all tubes” and the “conversion to oxidized products (1H-NMR)” value [4] was “complete conversion”. The “minimal concentration that exhibited birefringence” value [5] was 6%, the “birefringence after hydrogen peroxide, 7 and 8 percent cromolyn sodium” value [6] was “loss of birefringence was observed” and the “birefringence after hydrogen peroxide, more concentrated cromolyn sodium” value [6] was “No effect”.
